Data reported in the METLIN SMRT retention time set (Domingo-Almenara et al. 2019).

Test: gradient 5% acetonitrile 3 min, to 50% in 2 min, to 85% in 15 min, held 3 min, 100 µL/min
Conditions: column: Zorbax Extend-C18 2.1 x 50 mm; eluents: water / acetonitrile, 0.1% formic acid
Summary of the method: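 Retention times come from adduct peaks that were picked computationally and then checked by hand. The standards, pure and pooled in mixtures of ~100 molecules, were run on a Zorbax Extend-C18 column (2.1 × 50 mm, 1.8 μm) at 100 μL/min with water and acetonitrile, each with 0.1% formic acid. Detection was by quadrupole time-of-flight mass spectrometry in positive and negative ionization mode, with a dead volume of 40 μL and a dwell volume of 900 μL.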

## O=C(c1cccc([N+](=O)[O-])c1)N1CCN(C(c2ccccc2)c2ccccc2)CC1
  RP-LC retention time: 757 s

## Cc1cc2c(cc1S(=O)(=O)NC(C)C)N(C(=O)C1CC1)CC2
  RP-LC retention time: 808 s

## COc1ccc2c(c1OC)C(=O)O[C@@H]2[C@H]1c2cc3c(cc2CCN1C)OCO3
  RP-LC retention time: 660 s

## CN(C)C(=O)c1csc(S(=O)(=O)N2CCC(C(=O)Nc3ccccc3F)CC2)c1
  RP-LC retention time: 770 s

## COc1cccc(-c2nc(Cn3cnc4nc5c(cc4c3=O)CC(C)CC5)c(C)o2)c1OC (stereo unspecified)
  RP-LC retention time: 941 s

## Cc1ccc(NC(=O)N2CCC(N3CCN(Cc4ccc(F)cc4)C(=O)C3=O)CC2)cc1C
  RP-LC retention time: 774 s

## O=C(C1CCN(c2ncnc3c2nc2n3CCCCC2)CC1)N1CCN(c2ccccn2)CC1
  RP-LC retention time: 592 s

## C=CCN1CCN(c2nc3cc(C(=O)OC)ccc3c(=O)n2-c2ccc(F)c(Cl)c2)CC1
  RP-LC retention time: 699 s

## C#CCOCC1CCCN(S(=O)(=O)c2cc(F)ccc2OC)C1 (stereo unspecified)
  RP-LC retention time: 871 s

## Cc1ccc(-c2nc(CN3CCN(C(=O)NC4CCCC4)CC3)c(C)o2)cc1
  RP-LC retention time: 677 s

## Cc1cc(NCC(=O)NC2CCCCC2)n2nc(-c3cccnc3)nc2n1
  RP-LC retention time: 646 s

## CCOc1ccc2ncc(C(=O)c3ccc(C)cc3)c(N3CCN(C)CC3)c2c1
  RP-LC retention time: 561 s

## CCc1ccccc1NC(=O)C1CCCN(S(=O)(=O)c2cn(CC)cn2)C1 (stereo unspecified)
  RP-LC retention time: 726 s

## CCc1ccc(NC(=O)N2CCCC(Cn3cnc4cccnc43)C2)cc1 (stereo unspecified)
  RP-LC retention time: 733 s

## CCc1ccccc1NC(=O)C1CCCN(S(=O)(=O)c2ccc(OC)c(C)c2)C1 (stereo unspecified)
  RP-LC retention time: 1020 s

## C=CCN(CC=C)C(=O)C1CCN(C(=O)c2cccc(F)c2)CC1
  RP-LC retention time: 1250 s

## CCOC(=O)C1CCN(C(=O)c2ccc3c(c2)NC(=O)C2CCCCN32)CC1 (stereo unspecified)
  RP-LC retention time: 554 s

## CC1CCN(S(=O)(=O)c2ccc(-c3nnc(C(=O)N4CCN(C)CC4)o3)cc2)CC1
  RP-LC retention time: 665 s

## Cc1ccc(-c2nnc(Cc3nc(-c4ccncc4)no3)o2)cc1F
  RP-LC retention time: 814 s

## COc1ccc(Nc2c(C(=O)N3CCC(C)CC3)cnc3nc(C)ccc23)cc1
  RP-LC retention time: 638 s

## O=C(NCCn1ncccc1=O)c1ccc(S(=O)(=O)N2CCOCC2)cc1
  RP-LC retention time: 572 s

## CN(C)CCN(C(=O)CCc1ccccc1)c1nc2ccc(F)cc2s1
  RP-LC retention time: 773 s

## Cc1ccc(C)c(-c2coc(-c3ccc(NC(=O)NCc4ccccc4)cc3)n2)c1
  RP-LC retention time: 1220 s

## O=C(CC1CCCC1)Nc1nc(-c2cccc3ccccc23)cs1
  RP-LC retention time: 1220 s

## O=C(Cn1ccnc1-c1ccnc(N2CCCCC2)c1)NC1CCCCC1
  RP-LC retention time: 624 s

## O=C(CCc1c(-c2ccc(Br)cc2)nc2ccccn12)NCc1cccnc1
  RP-LC retention time: 557 s

## CCC1CN(C(=O)N2CCC(C(=O)NCCCN3CCCCCC3)CC2)c2ccccc2O1 (stereo unspecified)
  RP-LC retention time: 663 s

## Cc1ccccc1N1CCN(C(=O)c2cn3c(n2)CCCC3)CC1
  RP-LC retention time: 668 s

## CC1(C)C(=O)N(CC(=O)Nc2ccc(F)c(Cl)c2)c2ccccc21
  RP-LC retention time: 966 s

## COc1ccc(CN(C(=O)COc2ccc(Cl)cc2C)C2CCS(=O)(=O)C2)cc1OC (stereo unspecified)
  RP-LC retention time: 938 s

## Cc1cccc(NC(=O)C(=O)NCCN2CCN(c3ccc(F)cc3)CC2)c1C
  RP-LC retention time: 584 s

## COCCC1CCN(C(=O)CN(C)C(=O)c2n[nH]c3ccccc23)CC1
  RP-LC retention time: 661 s

## CCn1ccc(C(=O)N2CCC3(CC2)NCc2ccccc2-n2ccnc23)n1
  RP-LC retention time: 579 s

## O=C(CN1N=C(c2ccccc2)c2ccccc2S1(=O)=O)Nc1cccc(Cl)c1
  RP-LC retention time: 1020 s

## Cc1ccc(CCNC(=O)c2cc3sccc3n2Cc2ccc(F)cc2)cc1
  RP-LC retention time: 702 s

## C[C@@H]1C(=O)O[C@H]2C[C@@]34C5C[C@@H](C(C)(C)C)[C@]36[C@H](OC(=O)[C@@H]6O)OC4(C(=O)O5)[C@]21O (stereo partly specified)
  RP-LC retention time: 709 s

## COC(=O)c1ccccc1S(=O)(=O)Nc1ccc2c(c1)CCC(=O)N2
  RP-LC retention time: 697 s

## CCN1CCCn2nc(C3CCN(S(=O)(=O)c4ccc(F)cc4)CC3)cc2C1=O
  RP-LC retention time: 761 s

## Cn1cc(CC(=O)NCc2cccc(Cl)c2)c2cccnc21
  RP-LC retention time: 725 s

## COc1cccc(NC(=O)Cn2c(N)nc(C)cc2=O)c1
  RP-LC retention time: 581 s

## O=C(Cc1c(Sc2cccc(F)c2)[nH]c2ccccc12)N1CCN(c2ncccn2)CC1
  RP-LC retention time: 975 s

## Cc1ccc(C(=O)NCC2CCCN(S(=O)(=O)c3c(C)c(C)cc(C)c3C)C2)cc1 (stereo unspecified)
  RP-LC retention time: 1100 s

## Cc1noc(C)c1CNC(=O)COc1ccc(F)cc1
  RP-LC retention time: 711 s

## CCOC(=O)Cn1c(C2CC(=O)N(c3ccc(Cl)cc3)C2)nc2ccccc21 (stereo unspecified)
  RP-LC retention time: 858 s

## Cc1nc(C2(C)CCN(S(=O)(=O)c3cc(C)c(C)cc3C)CC2)no1
  RP-LC retention time: 1070 s

## O=C(NC1CCN(c2nnc3ccccn23)CC1)c1ccc2c(c1)OCO2
  RP-LC retention time: 628 s

## COc1ccc(-c2nc3cnccn3c2Nc2ccc3c(c2)OCCO3)cc1OC
  RP-LC retention time: 717 s

## O=C(Nc1ccc(OC(F)(F)F)cc1)C1CCN(C(=O)C2Sc3ccccc3NC2=O)CC1 (stereo unspecified)
  RP-LC retention time: 893 s

## Cc1ccc(C)c(-c2nc(NC(=O)c3cc(C)on3)sc2C)c1
  RP-LC retention time: 1110 s

## Cc1cc(C)n(CCN2CCN(C(=O)Cn3cnc4ccccc43)CC2)n1
  RP-LC retention time: 512 s

## O=c1n(Cc2cccc(F)c2)nc2c(S(=O)(=O)N3CCCCC3)cccn12
  RP-LC retention time: 872 s

## CC(C)NC(=O)c1ccc2nc(-c3ccccc3)cn2c1
  RP-LC retention time: 604 s

## CC(NC(=O)c1cc(=O)[nH]c2ccc(Br)cc12)c1ccccc1 (stereo unspecified)
  RP-LC retention time: 769 s

## CCN(CC)C(=O)c1c(C)sc2ccn(Cc3ccc(F)cc3)c(=O)c12
  RP-LC retention time: 828 s

## CCC(C)NC(=O)c1cc2c(s1)CCN(C(=O)c1ccccc1)C2 (stereo unspecified)
  RP-LC retention time: 769 s

## Cc1ccccc1NC(=O)N1CCN(c2nc(N3CCOCC3)nc(-n3ccnc3)n2)CC1
  RP-LC retention time: 603 s

## O=C(CSc1nnc2c3sc(N4CCCC4)nc3ncn12)Nc1ccc(F)c(F)c1
  RP-LC retention time: 863 s

## COc1ccc(C(=O)CC2(O)C(=O)Nc3ccc(C)cc32)c(OC)c1 (stereo unspecified)
  RP-LC retention time: 685 s

## CCn1c(=O)c(SCC(=O)NCCCN2CCCC(C)C2)nc2ccccc21 (stereo unspecified)
  RP-LC retention time: 615 s

## COCC(=O)N(CC(=O)N1CCc2sccc2C1COc1ccc(F)cc1)C(C)(C)C (stereo unspecified)
  RP-LC retention time: 906 s

## Cc1cc(C(=O)N2CC(c3nc4ccccc4[nH]3)C2)no1
  RP-LC retention time: 555 s

## Cc1nn(CC(=O)N2CCCCCC2)c(=O)c2nc(-c3ccccc3)sc12
  RP-LC retention time: 872 s

## CC(=O)c1cccc(NC(=O)c2ncn(-c3ccccc3)n2)c1
  RP-LC retention time: 731 s

## Cc1ccnn1-c1ccc(SCC(=O)Nc2cc(F)ccc2F)nn1
  RP-LC retention time: 934 s

## COc1ccc(NC(=O)c2ccc3c(c2)OCCO3)c([N+](=O)[O-])c1
  RP-LC retention time: 874 s

## COc1ccc(NC(=O)N2CCCC(C)(C(=O)NCc3ccccc3C)C2)c(OC)c1 (stereo unspecified)
  RP-LC retention time: 866 s
